Measurements reported in patent publication US8383577B2 (Endo Pharmaceuticals Solutions, Inc., priority 2008, dated 2013).

How the values were obtained:
[1] = cited from earlier work; for CMC: critical micelle concentration; for HLB: hydrophilic-lipophilic balance
[2] = Formulation study: effect of excipient on implant shape and durability (Example 3); assay type: physicochemical; conditions: cartridges about 28% HEMA, about 66.5% HPMA, 5% glycerin
Text: A series of implants was monitored to determine the effect of excipient on implant shape and durability. Each of the polymer cartridges was composed of about 28% HEMA, about 66.5% HPMA and 5% glycerin.

[3] = tested on: GH; conditions: following a subcutaneous octreotide injection; cited from earlier work
[4] = tested on: IGF-1; conditions: acromegaly patients on octreotide; cited from earlier work

CCCCCCCC/C=C\CCCCCCCC(=O)OCCOCC(OCCO)C1OCC(OCCO)C1OCCO (stereo not shown) [Tween 80]
CMC [1]: 0.012 mM | HLB [1]: 15

O=C(O)CO [glycolic acid]
stabilization of the octreotide implant by excipient [2]: did not provide a stabilizing effect and resulted in a decrease in integrity

OC[C@@H](O)[C@@H](O)[C@H](O)[C@H](O)CO [mannitol]
stabilization of the octreotide implant by excipient [2]: did not provide a stabilizing effect and resulted in a decrease in integrity

L-cysteinamide, D-phenylalanyl-L-cysteiny-L-phenylalanyl-D-tryptophyl-L-lysyl-L-threonyl-N-[2-hydroxy-1-(hydroxymethyl)propyl]-, cyclic(2→7)-disulfide; [Octreotide, L-cysteinamide, D-phenylalanyl-L-cysteiny-L-phenylalanyl-D-tryptophyl-L-lysyl-L-threonyl-N-[2-hydroxy-1-(hydroxymethyl)propyl]-, cyclic(2→7)-disulfide; [R-(R*,R*)]]
time to GH level decrease [3]: usually decrease within two hours | patients with normalization of IGF-1 levels [4]: up to 60 % of patients

Sucrose monolaurate
CMC [1]: 0.2 mM | HLB [1]: ~8

Triton X-100
CMC [1]: 0.2 to 0.9 mM | HLB [1]: 13.5
